Legend:
[1] = system: sub-genomic HCV NS3-NS5B replicon of genotype 1b (ET subline) in Huh-7 cells; assay: Replicon Luciferase Cell Based Assay, genotype 1b; design: species or system HCV genotype 1b; details: Hepatitis C virus, Huh-7, 48 h, read-out: Genotype 1b (IC50 μM)
Description: (§1) A 10 mM stock solution in DMSO of each test compound was further diluted in DMSO in the first row of a 384-well, V-bottom microplate, to give 100 times the top concentration of the required dilution series. Dilutions of compound were prepared in 1:3 serial dilutions from the first row onwards robotically. A robot was also used to transfer 0.5 μL volumes from each dilution well into wells of white 384-well assay plates (Nunc #164610). Control wells received 0.5 μL of DMSO alone. Plates were made in duplicate for measuring HCV replication and cytotoxicity in the replicon cell lines.
(§2) Suspensions were prepared from cultures of Huh-7 cells stably transfected with sub-genomic HCV NS3—NS5B replicons of either genotype 1b (the ET subline described by Pietschmann, T., Lohmann, V., Kaul, A., Krieger, N., Rinck, G., Rutter, G., Strand, D. & Bartenschlager, R., Journal of Virology, 2002, 76, 4008-4021) or genotype 1a linked to a firefly luciferase reporter gene. Monolayers nearing confluency were stripped from growth flasks with versene-trypsin solution and the cells re-suspended in assay medium comprising DMEM (Invitrogen #11965-092) supplemented with 5% v/v foetal calf serum, 1% v/v non-essential amino acids solution, 100 units/ml penicillin, 100 μg/ml streptomycin and 2 mM GlutaMAX-1. 50 μL of suspension containing 5,000 cells of either genotype 1b or genotype 1a luciferase replicon were added to all wells, except medium controls, of the assay plate with a Multidrop Combi (Thermo Scientific Corporation) and the plate incubated for 48 hours at 37° C. in a 5% CO2 atmosphere. A solution of Steady-Glo cytolytic buffer/luciferase substrate (Promega #E2550) was prepared according to the manufacturer's instructions, and 20 μL were added to each well with a Multidrop Combi. To measure cytotoxicity, a solution of CellTiter-Glo Luminescent Cell Viability Assay reagent (Promega #G7573) was prepared according to the manufacturer's instructions, and 20 ul were added to each well with a Multidrop Combi. The plates were then read for luminescence on an Envision Multilabel Reader (Perkin Elmer)
(§3) Potency: The luminescence values from all compound-free wells containing cells were averaged to obtain a positive control value. The mean luminescence value from the compound-free wells that had received no cells was used to provide the negative (background) control value. After the subtraction of the mean background from all values, the readings from wells at each compound concentration were expressed as a percentage of the positive control signal. The quantifiable and specific reduction of luciferase signal in the presence of a drug is a direct measure of replicon inhibition. The BioAssay application and XC50 module were used to plot the curve of percentage inhibition against compound concentration and derive the 50% inhibitory concentration (IC50) for the compound.

[2] = system: sub-genomic HCV NS3-NS5B replicon of genotype 1a in Huh-7 cells; assay: Replicon Luciferase Cell Based Assay, genotype 1a; design: species or system HCV genotype 1a; details: Hepatitis C virus, Huh-7, 48 hours
Description: as §1, §2, §3

SMILES	IC50 [1] [µM]	IC50 [2] [µM]
COc1ccc2c(O[C@@H]3C[C@H]4C(=O)N[C@]5(C(=O)NS(=O)(=O)C6CC6)C[C@H]5/C=C\CCCCC[C@H](NC(=O)N(C)C(C)(C)C)C(=O)N4C3)cc(-c3nc(C4CC4)cs3)nc2c1C [Example 9, (2R,6S,13aS,14aR,16aS)-N-(cyclopropylsulfonyl)-2-{[2-(4-cyclopropyl-1,3-thiazol-2-yl)-8-methyl-7-(methyloxy)-4-quinolinyl]oxy}-6-({[(1,1-dimethylethyl)(methyl)amino]carbonyl}amino)-5,16-dioxo-1,2,3,6,7,8,9,10,11,13a,14,15,16,16a-tetradecahydrocyclopropa[e]pyrrolo[1,2-a][1,4]diazacyclopentadecine-14a(5H)-carboxamide]	< 0.01	< 0.01
COc1ccc2c(O[C@@H]3C[C@H]4C(=O)N[C@]5(C(=O)NS(=O)(=O)C6CC6)C[C@H]5/C=C\CCCCC[C@H](NC(=O)N5CCC5)C(=O)N4C3)cc(-c3nc(C4CC4)cs3)nc2c1C [Example 32, (2R,65,13aS,14aR,16aS,Z)-6-(azetidine-1-carboxamido)-N-(cyclopropylsulfonyl)-2-(2-(4-cyclopropylthiazol-2-yl)-7-methoxy-8-methylquinolin-4-yloxy)-5,16-dioxo-1,2,3,5,6,7,8,9,10,11,13a,14,14a,15,16,16a-hexadecahydrocyclopropa[e]pyrrolo[1,2-a][1,4]diazacyclopentadecine-14a-carboxamide]	< 0.01	< 0.01
COc1ccc2c(O[C@@H]3C[C@H]4C(=O)N[C@]5(C(=O)NS(=O)(=O)C6CC6)C[C@H]5/C=C\CCCCC[C@H](NC(=O)N5CC6CCCC6C5)C(=O)N4C3)cc(-c3nc(C(C)C)cs3)nc2c1C (stereo partly drawn) [Example 24, (2R,6S,13aS,14aR,16aS)-N-(cyclopropylsulfonyl)-6-[(hexahydrocyclopenta[c]pyrrol-2(1H)-ylcarbonyl)amino]-2-{[8-methyl-2-[4-(1-methylethyl)-1,3-thiazol-2-yl]-7-(methyloxy)-4-quinolinyl]oxy}-5,16-dioxo-1,2,3,6,7,8,9,10,11,13a,14,15,16,16a-tetradecahydrocyclopropa[e]pyrrolo[1,2-a][1,4]diazacyclopentadecine-14a(5H)-carboxamide]	< 0.01	< 0.01
COc1ccc2c(O[C@@H]3C[C@H]4C(=O)N[C@]5(C(=O)NS(=O)(=O)C6CC6)C[C@H]5/C=C\CCCCC[C@H](NC(=O)N5CC(F)(F)C5)C(=O)N4C3)cc(-c3nc(C(C)C)cs3)nc2c1C [Example 35, (2R,6S,13aS,14aR,16aS,Z)-N-(cyclopropylsulfonyl)-6-(3,3-difluoroazetidine-1-carboxamido)-2-(2-(4-isopropylthiazol-2-yl)-7-methoxy-8-methylquinolin-4-yloxy)-5,16-dioxo-1,2,3,5,6,7,8,9,10,11,13a,14,14a,15,16,16a-hexadecahydrocyclopropa[e]pyrrolo[1,2-a][1,4]diazacyclopentadecine-14a-carboxamide]	< 0.01	< 0.01
COc1ccc2c(O[C@@H]3C[C@H]4C(=O)N[C@]5(C(=O)NS(=O)(=O)C6CC6)C[C@H]5/C=C\CCCCC[C@H](NC(N)=O)C(=O)N4C3)cc(-c3nc(C(C)C)cs3)nc2c1C [Example 3, (2R,6S,13aS,14aR,16aS)-6-[(aminocarbonyl)amino]-N-(cyclopropylsulfonyl)-2-{[8-methyl-2-[4-(1-methylethyl)-1,3-thiazol-2-yl]-7-(methyloxy)-4-quinolinyl]oxy}-5,16-dioxo-1,2,3,6,7,8,9,10,11,13a,14,15,16,16a-tetradecahydrocyclopropa[e]pyrrolo[1,2-a][1,4]diazacyclopentadecine-14a(5H)-carboxamide]	< 0.01	< 0.01
CCN(C)C(=O)N[C@H]1CCCCC/C=C\[C@@H]2C[C@@]2(C(=O)NS(=O)(=O)C2CC2)NC(=O)[C@@H]2C[C@@H](Oc3cc(-c4nc(C(C)C)cs4)nc4c(C)c(OC)ccc34)CN2C1=O [Example 17]	< 0.01	< 0.01
COc1ccc2c(O[C@@H]3C[C@H]4C(=O)N[C@]5(C(=O)NS(=O)(=O)C6CC6)C[C@H]5/C=C\CCCCC[C@H](NC(=O)N5CCC(c6ccccc6)CC5)C(=O)N4C3)cc(-c3nc(C(C)C)cs3)nc2c1C [Example 20, (2R,6S,13aS,14aR,16aS)-N-(cyclopropylsulfonyl)-2-{[8-methyl-2-[4-(1-methylethyl)-1,3-thiazol-2-yl]-7-(methyloxy)-4-quinolinyl]oxy}-5,16-dioxo-6-{[(4-phenyl-1-piperidinyl)carbonyl]amino}-1,2,3,6,7,8,9,10,11,13a,14,15,16,16a-tetradecahydrocyclopropa[e]pyrrolo[1,2-a][1,4]diazacyclopentadecine-14a(5H)-carboxamide]	< 0.01	< 0.01
COc1ccc2c(O[C@@H]3C[C@H]4C(=O)N[C@]5(C(=O)NS(=O)(=O)C6CC6)C[C@H]5/C=C\CCCCC[C@H](NC(=O)N5CCOCC5)C(=O)N4C3)cc(-c3nc(C(C)C)cs3)nc2c1C [Example 14]	< 0.01	< 0.01
COCCN(C)C(=O)N[C@H]1CCCCC/C=C\[C@@H]2C[C@@]2(C(=O)NS(=O)(=O)C2CC2)NC(=O)[C@@H]2C[C@@H](Oc3cc(-c4nc(C5CC5)cs4)nc4c(Cl)c(OC)ccc34)CN2C1=O [Example 28, (2R,6S,13aS,14aR,16aS)-2-{[8-chloro-2-(4-cyclopropyl-1,3-thiazol-2-yl)-7-(methyloxy)-4-quinolinyl]oxy}-N-(cyclopropylsulfonyl)-6-[({methyl[2-(methyloxy)ethyl]amino}carbonyl)amino]-5,16-dioxo-1,2,3,6,7,8,9,10,11,13a,14,15,16,16a-tetradecahydrocyclopropa[e]pyrrolo[1,2-a][1,4]diazacyclopentadecine-14a(5H)-carboxamide]	< 0.01	< 0.01
COc1ccc2c(O[C@@H]3C[C@H]4C(=O)N[C@]5(C(=O)NS(=O)(=O)C6CC6)C[C@H]5/C=C\CCCCC[C@H](NC(=O)N5C[C@@H](C)O[C@@H](C)C5)C(=O)N4C3)cc(-c3nc(C(C)C)cs3)nc2c1C [Example 11, (2R,6S,13aS,14aR,16aS)-N-(cyclopropylsulfonyl)-6-({[(2R,6S)-2,6-dimethyl-4-morpholinyl]carbonyl}amino)-2-{[8-methyl-2-[4-(1-methylethyl)-1,3-thiazol-2-yl]-7-(methyloxy)-4-quinolinyl]oxy}-5,16-dioxo-1,2,3,6,7,8,9,10,11,13a,14,15,16,16a-tetradecahydrocyclopropa[e]pyrrolo[1,2-a][1,4]diazacyclopentadecine-14a(5H)-carboxamide]	< 0.01	< 0.01
COc1ccc2c(O[C@@H]3C[C@H]4C(=O)N[C@]5(C(=O)NS(=O)(=O)C6CC6)C[C@H]5/C=C\CCCCC[C@H](NC(=O)N5CCC5)C(=O)N4C3)cc(-c3nc(C(C)C)cs3)nc2c1C [Example 18, (2R,6S,13aS,14aR,16aS)-6-[(1-azetidinylcarbonyl)amino]-N-(cyclopropylsulfonyl)-2-{[8-methyl-2-[4-(1-methylethyl)-1,3-thiazol-2-yl]-7-(methyloxy)-4-quinolinyl]oxy}-5,16-dioxo-1,2,3,6,7,8,9,10,11,13a,14,15,16,16a-tetradecahydrocyclopropa[e]pyrrolo[1,2-a][1,4]diazacyclopentadecine-14a(5H)-carboxamide]	< 0.01	< 0.01

Source: patent US20100196321A1, “COMPOUNDS” (GLAXOSMITHKLINE LLC, priority 2009, published 2010)
